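Values below derive from 48-hour exposures of cells grown in 96-well plates, with endpoints linearly interpolated between the two concentrations bracketing the appropriate inhibition level. The concentration for 50% growth inhibition is given as GI50.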 Calls of active or inactive are those of the source. No stated cut-off is given here; in the data, active = GI50 up to about 1.1 µM and inactive = higher.
Experiments:
Assay in all cases: growth of human tumour cells (NCI), 48 h
KM12 = tested on: KM12
A549 = tested on: A549
SK-MEL-5 = tested on: SK-MEL-5
SNB-75 = tested on: SNB-75
COLO 205 = tested on: COLO 205
HCT-15 = tested on: HCT-15
NCI-H522 = tested on: NCI-H522
OVCAR-5 = tested on: OVCAR-5
MCF7 = tested on: MCF7
HT-29 = tested on: HT-29
M14 = tested on: M14
SW-620 = tested on: SW-620
HL-60 = tested on: HL-60
HCC 2998 = tested on: HCC 2998
DU-145 = tested on: DU-145
Hs-578T = tested on: Hs-578T
IGROV-1 = tested on: IGROV-1
OVCAR-8 = tested on: OVCAR-8
OVCAR-4 = tested on: OVCAR-4
OVCAR-3 = tested on: OVCAR-3
HOP-92 = tested on: HOP-92
NCI-H460 = tested on: NCI-H460
LOX IMVI = tested on: LOX IMVI
MDA-MB-231 = tested on: MDA-MB-231
SK-MEL-28 = tested on: SK-MEL-28
Malme-3M = tested on: Malme-3M
MDA-MB-435 = tested on: MDA-MB-435
NCI-H23 = tested on: NCI-H23
UACC-62 = tested on: UACC-62
MOLT-4 = tested on: MOLT-4
RPMI-8226 = tested on: RPMI-8226
786-0 = tested on: 786-0
SF-268 = tested on: SF-268
NCI-H226 = tested on: NCI-H226
ACHN = tested on: ACHN
UO-31 = tested on: UO-31
U-251 = tested on: U-251
RXF 393 = tested on: RXF 393
SN12C = tested on: SN12C
SF-295 = tested on: SF-295
BT-549 = tested on: BT-549
K562 = tested on: K562
TK-10 = tested on: TK-10
CCRF-CEM = tested on: CCRF-CEM
SK-MEL-2 = tested on: SK-MEL-2
SR = tested on: SR
SNB-19 = tested on: SNB-19
UACC-257 = tested on: UACC-257
T47D = tested on: T47D
HCT-116 = tested on: HCT-116
EKVX = tested on: EKVX
A498 = tested on: A498
SK-OV-3 = tested on: SK-OV-3
NCI/ADR-RES = tested on: NCI/ADR-RES
CAKI-1 = tested on: CAKI-1
SF-539 = tested on: SF-539
PC-3 = tested on: PC-3

## CCOC(=O)c1c(N)n(-c2ccccc2)c(=O)n(-c2ccccc2)c1=O
KM12
  GI50: > 100 µM (inactive)
A549
  GI50: > 100 µM (inactive)
SK-MEL-5
  GI50: > 100 µM (inactive)
SNB-75
  GI50: > 100 µM (inactive)
COLO 205
  GI50: > 100 µM (inactive)
HCT-15
  GI50: > 100 µM
NCI-H522
  GI50: > 100 µM (inactive)
OVCAR-5
  GI50: > 100 µM (inactive)
MCF7
  GI50: > 100 µM (inactive)
HT-29
  GI50: > 100 µM (inactive)
M14
  GI50: > 100 µM (inactive)
SW-620
  GI50: > 100 µM (inactive)
HL-60
  GI50: > 100 µM (inactive)
HCC 2998
  GI50: > 100 µM (inactive)
DU-145
  GI50: > 100 µM (inactive)
Hs-578T
  GI50: > 100 µM (inactive)
IGROV-1
  GI50: > 100 µM (inactive)
OVCAR-8
  GI50: > 100 µM (inactive)
OVCAR-4
  GI50: > 100 µM (inactive)
OVCAR-3
  GI50: > 100 µM (inactive)
HOP-92
  GI50: > 100 µM (inactive)
NCI-H460
  GI50: > 100 µM (inactive)
LOX IMVI
  GI50: > 100 µM (inactive)
MDA-MB-231
  GI50: > 100 µM (inactive)
SK-MEL-28
  GI50: > 100 µM (inactive)
Malme-3M
  GI50: > 100 µM (inactive)
MDA-MB-435
  GI50: > 100 µM (inactive)
NCI-H23
  GI50: > 100 µM (inactive)
UACC-62
  GI50: > 100 µM (inactive)
MOLT-4
  GI50: > 100 µM (inactive)
RPMI-8226
  GI50: > 100 µM (inactive)
786-0
  GI50: > 100 µM (inactive)
SF-268
  GI50: > 100 µM (inactive)
NCI-H226
  GI50: > 100 µM (inactive)
ACHN
  GI50: > 100 µM (inactive)
UO-31
  GI50: > 100 µM (inactive)
U-251
  GI50: > 100 µM (inactive)
RXF 393
  GI50: > 100 µM (inactive)
SN12C
  GI50: > 100 µM (inactive)
SF-295
  GI50: > 100 µM (inactive)
BT-549
  GI50: > 100 µM (inactive)
K562
  GI50: > 100 µM (inactive)
TK-10
  GI50: > 100 µM (inactive)
CCRF-CEM
  GI50: > 10 µM (inactive)
SK-MEL-2
  GI50: > 100 µM (inactive)
SR
  GI50: > 100 µM (inactive)
SNB-19
  GI50: > 100 µM (inactive)
UACC-257
  GI50: > 100 µM (inactive)
T47D
  GI50: > 100 µM (inactive)

## COc1ccc2c(c1)CCN1CCc3cc(OC)c(OC)cc3CC21 (stereo not given)
KM12
  GI50: 88.5 µM (inactive)
A549
  GI50: > 100 µM (inactive)
SNB-75
  GI50: 66.7 µM (inactive)
COLO 205
  GI50: 21.3 µM (inactive)
HCT-15
  GI50: 61 µM
NCI-H522
  GI50: > 10 µM (inactive)
OVCAR-5
  GI50: > 100 µM (inactive)
MCF7
  GI50: 90.4 µM (inactive)
HT-29
  GI50: 35 µM (inactive)
M14
  GI50: 58.5 µM (inactive)
SW-620
  GI50: 80.5 µM (inactive)
HCT-116
  GI50: 41.9 µM (inactive)
HCC 2998
  GI50: 38.3 µM (inactive)
DU-145
  GI50: > 100 µM (inactive)
EKVX
  GI50: > 10 µM (inactive)
A498
  GI50: > 100 µM (inactive)
Hs-578T
  GI50: 89.5 µM (inactive)
IGROV-1
  GI50: > 10 µM (inactive)
OVCAR-8
  GI50: > 100 µM (inactive)
SK-OV-3
  GI50: > 100 µM (inactive)
OVCAR-4
  GI50: > 100 µM (inactive)
NCI/ADR-RES
  GI50: > 100 µM (inactive)
HOP-92
  GI50: 89.3 µM (inactive)
LOX IMVI
  GI50: 33 µM (inactive)
CAKI-1
  GI50: > 100 µM (inactive)
MDA-MB-231
  GI50: > 100 µM (inactive)
SK-MEL-28
  GI50: > 100 µM (inactive)
MDA-MB-435
  GI50: 66.1 µM (inactive)
NCI-H23
  GI50: 98.9 µM (inactive)
SF-539
  GI50: 76.4 µM (inactive)
UACC-62
  GI50: 32.6 µM (inactive)
MOLT-4
  GI50: 39.4 µM (inactive)
RPMI-8226
  GI50: 65.5 µM (inactive)
786-0
  GI50: > 100 µM (inactive)
SF-268
  GI50: 28.9 µM (inactive)
NCI-H226
  GI50: > 100 µM (inactive)
ACHN
  GI50: > 100 µM (inactive)
UO-31
  GI50: 31.8 µM (inactive)
U-251
  GI50: 72.3 µM (inactive)
RXF 393
  GI50: 69 µM (inactive)
SN12C
  GI50: > 100 µM (inactive)
SF-295
  GI50: > 100 µM (inactive)
BT-549
  GI50: 10.3 µM (inactive)
K562
  GI50: 34.9 µM (inactive)
TK-10
  GI50: > 100 µM (inactive)
CCRF-CEM
  GI50: 55 µM (inactive)
SR
  GI50: 39.8 µM (inactive)
SNB-19
  GI50: 82 µM (inactive)
UACC-257
  GI50: 93.8 µM (inactive)
T47D
  GI50: 73.3 µM (inactive)

## Cc1c(-c2c(C)c3ccccc3n2S(=O)(=O)c2ccccc2)n(S(=O)(=O)c2ccccc2)c2ccccc12
SNB-75
  GI50: > 31.6 µM (inactive)
NCI-H522
  GI50: > 100 µM (inactive)
OVCAR-5
  GI50: > 51.6 µM (inactive)
PC-3
  GI50: > 37.1 µM (inactive)
M14
  GI50: > 22.2 µM (inactive)
HL-60
  GI50: > 100 µM (inactive)
EKVX
  GI50: > 100 µM (inactive)
A498
  GI50: > 100 µM (inactive)
Hs-578T
  GI50: > 100 µM (inactive)
SK-OV-3
  GI50: > 82.6 µM (inactive)
NCI/ADR-RES
  GI50: > 80 µM (inactive)
OVCAR-3
  GI50: 5.62 µM (inactive)
HOP-92
  GI50: > 100 µM (inactive)
NCI-H460
  GI50: 0.0407 µM (active)
CAKI-1
  GI50: 0.336 µM (active)
MDA-MB-231
  GI50: > 56.4 µM (inactive)
SK-MEL-28
  GI50: > 100 µM (inactive)
Malme-3M
  GI50: 0.0299 µM (active)
MDA-MB-435
  GI50: > 100 µM (inactive)
NCI-H23
  GI50: > 72.8 µM (inactive)
SF-539
  GI50: 0.0371 µM (active)
UACC-62
  GI50: > 29.1 µM (inactive)
MOLT-4
  GI50: > 100 µM (inactive)
RPMI-8226
  GI50: > 100 µM (inactive)
786-0
  GI50: 0.019 µM (active)
SF-268
  GI50: > 100 µM (inactive)
NCI-H226
  GI50: > 39.9 µM (inactive)
UO-31
  GI50: > 100 µM (inactive)
SF-295
  GI50: > 100 µM (inactive)
BT-549
  GI50: > 100 µM (inactive)
K562
  GI50: > 100 µM (inactive)
TK-10
  GI50: > 100 µM (inactive)
CCRF-CEM
  GI50: > 100 µM (inactive)
SK-MEL-2
  GI50: > 37.5 µM (inactive)
SNB-19
  GI50: > 93.5 µM (inactive)
UACC-257
  GI50: > 100 µM (inactive)

— ChEMBL document CHEMBL1201862, “PubChem BioAssay data set” (2004)
